{"source": "paper PMC4065883", "about": "(European journal of medicinal chemistry, 2014)", "key": {"MC65 cells": {"tested_on": "MC65 cells", "conditions": "MTT"}, "[1]": {"experiment": "Hydroxyl radical scavenging, BMPO spin trap EPR", "conditions": "compound 1 mM, BMPO 10 mM"}, "Peroxyl": {"experiment": "Peroxyl", "conditions": "compound 1 mM, BMPO 10 mM"}, "[2]": {"experiment": "ROS scavenging activity, radical type not specified, BMPO spin trap EPR", "conditions": "compound 1 mM, BMPO 10 mM"}, "[3]": {"biological_target": "T1, Acetylcholinesterase from bovine erythrocytes (Bos taurus, UniProt P23795)", "T1 sequence (P23795 31-614 isoform P23795-2 limits assumed)": "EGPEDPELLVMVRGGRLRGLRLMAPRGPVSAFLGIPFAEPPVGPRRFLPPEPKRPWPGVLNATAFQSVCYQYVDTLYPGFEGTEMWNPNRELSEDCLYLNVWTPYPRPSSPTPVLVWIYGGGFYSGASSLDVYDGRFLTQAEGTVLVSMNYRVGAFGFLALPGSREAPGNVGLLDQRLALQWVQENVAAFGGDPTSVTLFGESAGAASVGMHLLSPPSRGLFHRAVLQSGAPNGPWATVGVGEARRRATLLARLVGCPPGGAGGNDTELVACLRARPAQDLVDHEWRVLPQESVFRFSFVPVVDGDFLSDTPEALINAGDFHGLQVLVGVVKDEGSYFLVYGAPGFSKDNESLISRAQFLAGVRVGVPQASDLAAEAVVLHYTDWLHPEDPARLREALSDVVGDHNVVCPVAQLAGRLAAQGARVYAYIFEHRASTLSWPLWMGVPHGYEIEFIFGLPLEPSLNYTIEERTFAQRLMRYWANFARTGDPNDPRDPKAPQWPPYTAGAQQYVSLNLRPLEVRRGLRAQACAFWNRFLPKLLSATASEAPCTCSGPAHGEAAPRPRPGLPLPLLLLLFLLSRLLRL", "type": "biochemical"}}, "note": "Entries after “also recorded” stand apart in the source; their conditions may differ. Read-outs that look alike come from different tables or passages of the source.", "data": [{"smiles": "Cl.Nc1c2c(nc3ccccc13)CCCC2", "note": "[1/HCl, reference compound]", "values": [{"measurement": "protection against Aβ-induced cytotoxicity (in words)", "setting": "MC65 cells", "value": "do not exhibit any protection"}, {"measurement": "hydroxyl radical scavenging activity (in words)", "setting": "[1]", "value": "limited"}, {"measurement": "peroxyl / superoxide radical scavenging activity (in words)", "setting": "Peroxyl", "value": "limited"}]}, {"smiles": "Nc1c2c(nc3ccccc13)CCCC2", "note": "[1b, 9-amino-1,2,3,4-tetrahydroacridine, reference compound]", "values": [{"measurement": "hydroxyl radical scavenging activity (in words)", "setting": "[1]", "value": "limited"}, {"measurement": "peroxyl / superoxide radical scavenging activity (in words)", "setting": "Peroxyl", "value": "limited; also recorded: lack peroxyl radical scavenging activity"}, {"measurement": "ROS scavenging activity (in words)", "setting": "[2]", "value": "no significant effect on the level of radical detected"}]}, {"smiles": "CC1(C)C=C(CNc2c3c(nc4ccccc24)CCCC3)C(C)(C)N1[O]", "note": "[4b, 2,2,5,5-Tetramethyl-3-[(1,2,3,4-tetrahydroacridin-9-yl)aminomethyl]-2,5-dihydro-1H-pyrrol-1-yloxyl Radical]", "values": [{"measurement": "AChEI activity (in words)", "setting": "[3]", "value": "less AChEI activity than compound 1b"}, {"measurement": "protection against Aβ-induced cytotoxicity (in words)", "setting": "MC65 cells", "value": "protection against Aβ-induced cytotoxicity"}, {"measurement": "peroxyl / superoxide radical scavenging activity (in words)", "setting": "Peroxyl", "value": "excellent"}, {"measurement": "ROS scavenging activity (in words)", "setting": "[2]", "value": "remarkable ROS scavenging activity"}]}, {"smiles": "CC1(C)C=C(CN2CCN(c3c4c(nc5ccccc35)CCCC4)CC2)C(C)(C)N1[O]", "note": "[9b, 2,2,5,5-Tetramethyl-3-[4-(1,2,3,4-tetrahydroacridin-9-yl)piperazin-1-ylmethyl]-2,5-dihydro-1H-pyrrol-1-yloxyl Radical]", "values": [{"measurement": "AChEI activity (in words)", "setting": "[3]", "value": "less AChEI activity than compound 1b"}, {"measurement": "protection against Aβ-induced cytotoxicity (in words)", "setting": "MC65 cells", "value": "protection against Aβ-induced cytotoxicity"}, {"measurement": "protection against Aβ-induced cytotoxicity (in words)", "setting": "MC65 cells; listed as 9", "value": "remarkable cell protection"}, {"measurement": "peroxyl / superoxide radical scavenging activity (in words)", "setting": "Peroxyl", "value": "excellent"}, {"measurement": "ROS scavenging activity (in words)", "setting": "[2]", "value": "remarkable ROS scavenging activity"}]}, {"smiles": "CC1(C)Cc2nc3ccccc3c(N)c2C(C)(C)N1", "note": "[16b, 1,1,3,3-tetramethyl-1,2,3,4-tetrahydrobenzo[b][1,6]naphthyridin-10-amine]", "values": [{"measurement": "AChEI activity (in words)", "setting": "[3]", "value": "inactive"}, {"measurement": "protection against Aβ-induced cytotoxicity (in words)", "setting": "MC65 cells", "value": "notable protective activity; also recorded: lower protective activity"}, {"measurement": "peroxyl / superoxide radical scavenging activity (in words)", "setting": "Peroxyl", "value": "lack peroxyl radical scavenging activity"}]}, {"smiles": "CC1(C)Cc2nc3ccccc3c(N)c2C(C)(C)N1[O]", "note": "[17b, 10-amino-1,1,3,3-tetramethyl-3,4-dihydrobenzo[b][1,6]naphthyridin-2(1H)-yloxyl Radical]", "values": [{"measurement": "protection against Aβ-induced cytotoxicity (in words)", "setting": "MC65 cells", "value": "notable protective activity"}, {"measurement": "hydroxyl radical scavenging activity (in words)", "setting": "[1]", "value": "superior"}, {"measurement": "peroxyl / superoxide radical scavenging activity (in words)", "setting": "Peroxyl", "value": "excellent"}]}, {"smiles": "CC1(C)NC(C)(C)c2c1nc1ccccc1c2N", "note": "[19b, 1,1,3,3-tetramethyl-2,3-dihydro-1H-pyrrolo[3,4-b]quinolin-9-amine]", "values": [{"measurement": "protection against Aβ-induced cytotoxicity (in words)", "setting": "MC65 cells", "value": "notable protective activity; also recorded: lower protective activity"}]}, {"smiles": "CC1(C)c2nc3ccccc3c(N)c2C(C)(C)N1[O]", "note": "[20b, 9-amino-1,1,3,3-tetramethyl-1H-pyrrolo[3,4-b]quinolin-2(3H)-yloxyl Radical]", "values": [{"measurement": "protection against Aβ-induced cytotoxicity (in words)", "setting": "MC65 cells", "value": "notable protective activity"}, {"measurement": "peroxyl / superoxide radical scavenging activity (in words)", "setting": "Peroxyl", "value": "lack peroxyl radical scavenging activity"}, {"measurement": "peroxyl / superoxide radical scavenging activity (in words)", "setting": "Peroxyl; listed as 20", "value": "excellent"}]}, {"smiles": "CN1CCc2nc3ccccc3c(N)c2C1", "note": "[22b, 2-methyl-1,2,3,4-tetrahydrobenzo[b][1,6]naphthyridin-10-amine]", "values": [{"measurement": "protection against Aβ-induced cytotoxicity (in words)", "setting": "MC65 cells", "value": "notable protective activity"}, {"measurement": "peroxyl / superoxide radical scavenging activity (in words)", "setting": "Peroxyl", "value": "lack peroxyl radical scavenging activity"}]}, {"smiles": "CN1C(C)(C)Cc2nc3ccccc3c(N)c2C1(C)C", "note": "[24b, 1,1,2,3,3-pentamethyl-1,2,3,4-tetrahydrobenzo[b][1,6]naphthyridin-10-amine]", "values": [{"measurement": "AChEI activity (in words)", "setting": "[3]", "value": "limited AChEI activity"}, {"measurement": "protection against Aβ-induced cytotoxicity (in words)", "setting": "MC65 cells", "value": "notable protective activity"}, {"measurement": "peroxyl / superoxide radical scavenging activity (in words)", "setting": "Peroxyl", "value": "lack peroxyl radical scavenging activity"}]}, {"smiles": "CC1(C)C=C(CNc2c3c(nc4ccccc24)CCCC3)CC(C)(C)N1[O]", "note": "[compound 5, 2,2,6,6-Tetramethyl-4-[(1,2,3,4-tetrahydroacridin-9-yl)aminomethyl]-1,2,3,6-tetrahydropyridin-1-yloxyl Radical]", "values": [{"measurement": "AChEI activity (in words)", "setting": "[3]", "value": "less AChEI activity than compound 1b"}, {"measurement": "protection against Aβ-induced cytotoxicity (in words)", "setting": "MC65 cells", "value": "protection against Aβ-induced cytotoxicity"}, {"measurement": "peroxyl / superoxide radical scavenging activity (in words)", "setting": "Peroxyl", "value": "excellent"}, {"measurement": "ROS scavenging activity (in words)", "setting": "[2]", "value": "remarkable ROS scavenging activity"}]}, {"smiles": "c1ccc2c(N3CCNCC3)c3c(nc2c1)CCCC3", "note": "[compound 7, 9-(Piperazin-1-yl)-1,2,3,4-tetrahydroacridine]", "values": [{"measurement": "protection against Aβ-induced cytotoxicity (in words)", "setting": "MC65 cells", "value": "do not provide any significant level of cell protection"}, {"measurement": "hydroxyl radical scavenging activity (in words)", "setting": "[1]", "value": "limited"}, {"measurement": "peroxyl / superoxide radical scavenging activity (in words)", "setting": "Peroxyl", "value": "limited; also recorded: lack peroxyl radical scavenging activity"}]}, {"smiles": "C#CCN1CCN(c2c3c(nc4ccccc24)CCCC3)CC1", "note": "[compound 10, 9-[4-(prop-2-yn-1-yl)piperazin-1-yl]-1,2,3,4-tetrahydroacridine]", "values": [{"measurement": "AChEI activity (in words)", "setting": "[3]", "value": "less AChEI activity than compound 1b"}, {"measurement": "protection against Aβ-induced cytotoxicity (in words)", "setting": "MC65 cells", "value": "do not provide any significant level of cell protection"}, {"measurement": "hydroxyl radical scavenging activity (in words)", "setting": "[1]", "value": "limited"}, {"measurement": "peroxyl / superoxide radical scavenging activity (in words)", "setting": "Peroxyl", "value": "limited; also recorded: lack peroxyl radical scavenging activity"}]}, {"smiles": "CC1(C)CC(n2cc(CN3CCN(c4c5c(nc6ccccc46)CCCC5)CC3)nn2)CC(C)(C)N1[O]", "note": "[compound 12, 2,2,6,6-Tetramethyl-4-{4-[4-(1,2,3,4-tetrahydroacridin-9-yl)piperazin-1-ylmethyl]-1H-1,2,3-triazol-1-yl}piperidin-1-yloxyl Radical]", "values": [{"measurement": "AChEI activity (in words)", "setting": "[3]", "value": "less AChEI activity than compound 1b; also recorded: active; also recorded: most efficient AChE inhibitors"}, {"measurement": "protection against Aβ-induced cytotoxicity (in words)", "setting": "MC65 cells", "value": "protection against Aβ-induced cytotoxicity; also recorded: remarkable cell protection"}, {"measurement": "peroxyl / superoxide radical scavenging activity (in words)", "setting": "Peroxyl", "value": "excellent"}, {"measurement": "ROS scavenging activity (in words)", "setting": "[2]", "value": "remarkable ROS scavenging activity; also recorded: most efficient"}]}, {"smiles": "COc1ccc(CN2CCN(c3c4c(nc5ccccc35)CCCC4)CC2)c(OC)c1OC", "note": "[compound 13, 9-[4-(2,3,4-trimethoxybenzyl)piperazin-1-yl]-1,2,3,4-tetrahydroacridine]", "values": [{"measurement": "protection against Aβ-induced cytotoxicity (in words)", "setting": "MC65 cells", "value": "notable protective activity"}, {"measurement": "peroxyl / superoxide radical scavenging activity (in words)", "setting": "Peroxyl", "value": "lack peroxyl radical scavenging activity"}, {"measurement": "ROS scavenging activity (in words)", "setting": "[2]", "value": "appreciable scavenging activity; also recorded: notable antioxidant activity"}]}]}
